Like-named read-outs stand apart in the source and are kept apart here.
Columns and labels:
[1] = Foam height test (vortexed paste/gel/water mixture with surfactant); format: physicochemical; conditions: 1% total surfactant (actives); for Total Height: 1 g surfactant-free paste of Table 1, 1 g surfactant-free gel of Table 2, 6 g water, vortex 1 minute, foam plus liquid underneath; for Liquid Height: volume of liquid underneath the foam, less than 5 mL not quantifiable
Experimental: The test used 1% total surfactant (actives). The surfactant was added to an aqueous mixture containing 1 g of surfactant-free paste of Table 1, 1 g of the surfactant-free version of the gel of Table 2, and 6 g of water. The mixture, prepared in a centrifuge tube, is placed on a Vortex-Genie 2 (Scientific Industries) on setting 5, and allowed to vortex for 1 minute. The total height measured was the total volume of the foam plus any liquid underneath. The liquid height was the volume of liquid underneath the foam. Liquid volumes of less than 5 mL could not be quantified since the lowest level on the centrifuge tube used to conduct the foam test was 5 mL.

[2] = format: physicochemical; conditions: paste of Table 1 with surfactant

| Compound | Total Height [1] | Liquid Height [1] | Phase Behavior ([2]; stored at 100° F.) | Phase Behavior ([2]; stored at RT) | Saturated solution concentration |
| --- | --- | --- | --- | --- | --- |
| Cocamidopropyl Betaine [CBT] | 10 mL | 7 mL |  |  |  |
| CCCCCCCCCCCCOS(=O)(=O)[O-].[Na+] [SLS, Sodium Lauryl Sulfate] | 9 mL | 7 mL | Single Phase | Single Phase |  |
| CCCCCCCCCCOS(=O)(=O)[O-].[Na+] [SDS, Sodium Decyl Sulfate] | 19 mL | <5 mL |  |  |  |
| O=C([O-])O.[Na+] [sodium bicarbonate] |  |  |  |  | about 3.8% |

The next lines start with the values.

| Total Height [1] | Liquid Height [1] | Phase Behavior ([2]; stored at 100° F.) | Phase Behavior ([2]; stored at RT) | Saturated solution concentration | Compound |
| --- | --- | --- | --- | --- | --- |
| 10 mL | 7 mL |  |  |  | Sodium Laureth Sulfate, 3 Ether Groups [SLES-3] |
| 9 mL | 7 mL |  |  |  | Sodium Laureth Sulfate, 1 Ether Group [SLES-1] |
| 9 mL | 7 mL |  |  |  | Sodium Laureth Sulfate, 2 Ether Groups [SLES-2] |

Reference: patent US20060093562A1 (priority 2004, published 2006)
